Laboratory results as given in PubChem BioAssay (NCI).
“And” between values parts separate entries of the source, which are not always exact repeats. Equal entries are not always repeated.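 Dose response: 5 concentrations. Exposure: 48 h. Format: 96-well plates. Endpoint: linear interpolation; highest concentration if not reached. GI50 marks 50% less growth. TGI denotes the concentration required for complete inhibition of growth.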

Key:
Test in all cases: NCI-60 cell line screen, 48 h
OVCAR-3 ovarian = test system: OVCAR-3 ovarian
MCF7 breast = test system: MCF7 breast
NCI/ADR-RES ovarian = test system: NCI/ADR-RES ovarian
OVCAR-5 ovarian = test system: OVCAR-5 ovarian
HT29 colon = test system: HT29 colon
HCT-15 colon = test system: HCT-15 colon
RPMI-8226 leukemia = test system: RPMI-8226 leukemia
SW-620 colon = test system: SW-620 colon
IGROV1 ovarian = test system: IGROV1 ovarian
HS 578T breast = test system: HS 578T breast

Row | Structure (SMILES) | TGI (OVCAR-3 ovarian) | TGI (MCF7 breast) | TGI (NCI/ADR-RES ovarian) | TGI (OVCAR-5 ovarian) | TGI (HT29 colon) | TGI (HCT-15 colon) | TGI (RPMI-8226 leukemia) | TGI (SW-620 colon) | TGI (IGROV1 ovarian) | TGI (HS 578T breast) | GI50 (OVCAR-3 ovarian) | GI50 (MCF7 breast) | GI50 (NCI/ADR-RES ovarian) | GI50 (OVCAR-5 ovarian) | GI50 (HT29 colon) | GI50 (HCT-15 colon) | GI50 (RPMI-8226 leukemia) | GI50 (SW-620 colon) | GI50 (IGROV1 ovarian) | GI50 (HS 578T breast)
1 | CCOc1cc(C(=O)O)c2c(ccc3ccc(OC)c(OC)c32)c1OC | > 100 µM | > 100 µM | > 100 µM | > 100 µM | > 100 µM | > 100 µM | > 100 µM | > 100 µM | > 100 µM | > 100 µM |  |  |  |  |  |  |  |  |  | 
2 | COc1cc(OC)cc(-c2nc3sccn3c2/C=N/N=C(N)N)c1 | 12.3 µM | 20.1 µM | > 50 µM | 13.8 µM | 14.9 µM | 14.9 µM | 21.6 µM | 19.1 µM | 26.2 µM | 25.3 µM | 5.52 µM | 9.41 µM | 26.4 µM | 7.25 µM | 8.14 µM | 8.1 µM | 10.7 µM | 10 µM | 11.6 µM | 12.6 µM
3 | O=C1NCN(c2ccccc2)C12CCN(CCCC(c1ccc(F)cc1)c1ccc(F)cc1)CC2 | 3.98 µM | 5.65 µM | 10.2 µM | 16.4 µM | 3.22 µM | 4.71 µM | 4.1 µM | 4.58 µM | 9.89 µM | 6.51 µM | 2 µM | 1.88 µM | 2.85 µM | 3.76 µM | 1.51 µM | 2.09 µM | 1.82 µM | 2.06 µM | 2.36 µM | 2.17 µM
4 | c1cc(CN2CCCNCCNCCCNCC2)ccc1CN1CCCNCCNCCCNCC1 | > 100 µM | > 100 µM | > 100 µM | > 100 µM | > 100 µM | > 100 µM | > 100 µM | > 100 µM | > 100 µM | > 100 µM | > 100 µM | > 100 µM | > 100 µM | > 100 µM | > 100 µM | > 100 µM | > 100 µM | > 100 µM | > 100 µM | > 100 µM
5 | c1ccc2cc(Cn3cc[n+](Cc4ccc5ccccc5c4)c3)ccc2c1 | 2.18 µM | 10.5 µM | > 100 µM | 7.19 µM | 5.74 µM | 29.5 µM | 1.97 µM | 13.6 µM | 3.75 µM | 8.97 µM | 0.675 µM | 1.87 µM | > 100 µM | 1.71 µM | 0.555 µM | 14.9 µM | 0.348 µM | 2.05 µM | 0.659 µM | 1.28 µM
6 | O=C1/C(=C/c2ccc(F)c(F)c2)CN(C(=O)C(Cl)Cl)C/C1=C\c1ccc(F)c(F)c1 | 0.234 µM | 0.181 µM | 0.868 µM | 0.421 µM |  | 0.164 µM | 0.0871 µM | 0.0554 µM | 0.264 µM | 1.01 µM | 0.0709 µM | 0.0424 µM | 0.0633 µM | 0.167 µM | 0.0359 µM | 0.0303 µM | 0.0186 µM | 0.0215 µM | 0.0609 µM | 0.261 µM
7 | Nc1ncn(C2OC(COP(=O)(O)O)C(O)C2O)c(=O)n1 (stereo unspecified) | > 100 µM | > 100 µM | > 100 µM | > 100 µM | > 100 µM | > 100 µM | > 100 µM | > 100 µM | > 100 µM | > 100 µM |  |  |  |  |  |  |  |  |  | 
8 | COC1(OC)C2(Cl)C(Cl)=C(Cl)C1(Cl)C1c3ccc(C(C)=O)c4cccc(c34)C12 (stereo unspecified) | > 100 µM | > 100 µM | > 100 µM | > 100 µM | > 100 µM | > 100 µM | > 100 µM | > 100 µM | > 100 µM | > 100 µM |  |  |  |  |  |  |  |  |  | 
9 | Cc1ccc(-c2c(C#N)[n+](=O)c3cc(F)c(F)cc3n2[O-])cc1 | 3.61 µM | 38.1 µM | 9.2 µM | 15.9 µM | 61 µM | 3.75 µM | 6.99 µM | 16.1 µM | > 100 µM | > 100 µM | 1.77 µM | 5.04 µM | 2.83 µM | 3.91 µM | 24.7 µM | 1.2 µM | 1.49 µM | 3.9 µM | 3.59 µM | 25.3 µM
10 | O=C(O)C(Br)C(Br)C(=O)O (stereo unspecified) | > 100 µM | > 100 µM | > 100 µM | > 100 µM | > 100 µM | > 100 µM | > 100 µM | > 100 µM | > 100 µM | > 100 µM |  |  |  |  |  |  |  |  |  | 
11 | O=C1C=C2C=CC3CC2(O1)C1CCCCN31 (stereo unspecified) | 69.6 µM and 48.1 µM and > 100 µM | 70.4 µM and 39.5 µM and > 100 µM | 61.2 µM and 43.4 µM and > 100 µM | > 100 µM | 46.2 µM and 27.8 µM and > 100 µM | 46.4 µM and 29.4 µM and > 100 µM | 58.9 µM and 45.7 µM and > 100 µM | 42.4 µM and 39 µM and > 100 µM | 95 µM and 30.8 µM and > 100 µM | > 100 µM | 18.6 µM and 17.3 µM and 40.6 µM | 15.3 µM and 16.8 µM and 32.6 µM | 21.3 µM and 16.8 µM and 35.4 µM | 34.7 µM and 25.9 µM and > 100 µM | 16.1 µM and 12.9 µM and 34.7 µM | 11.4 µM and 11.8 µM and 31 µM | 7.45 µM and 15.1 µM and 29.3 µM | 16.9 µM and 13.7 µM and 38 µM |  | 67.8 µM and 29.3 µM and 63.3 µM
12 | O=C1NC(=O)[C@@]2(CC[C@@H](O)C2)c2ccncc21 |  | > 100 µM | > 100 µM | > 100 µM | > 100 µM | > 100 µM |  | > 100 µM | > 100 µM | > 100 µM |  |  |  |  |  |  |  |  |  | 
13 | O=C(Nc1ccc2ncnc(Nc3ccc(Oc4cccc(F)c4)c(Cl)c3)c2c1)c1ccc(CN2CCOCC2)cc1 | 7 µM | 5.64 µM | 7.16 µM | 23.4 µM | 11.7 µM | 8.85 µM |  | 11.2 µM | 5.5 µM | 7.04 µM | 2.16 µM | 1.83 µM | 2.33 µM | 4.5 µM | 2.97 µM | 2.49 µM |  | 3.21 µM | 1.4 µM | 1.96 µM
14 | CC(=Nc1ccccc1)C1=C(O)C(Cc2cccc(F)c2)NC1=O (stereo unspecified) |  | > 100 µM | 0.186 µM | > 100 µM | 13.4 µM | > 100 µM | > 100 µM | > 100 µM | > 100 µM | > 100 µM |  | 0.0354 µM | 0.0348 µM | 0.253 µM | 0.0372 µM | 0.0444 µM | 0.0525 µM | 0.0419 µM | 0.0854 µM | 0.0501 µM
15 | O=C1NC(O)c2ccccc2O1 (stereo unspecified) | > 100 µM | > 100 µM | > 100 µM | > 100 µM | > 100 µM | > 100 µM |  | > 100 µM | > 100 µM | > 100 µM |  |  |  |  |  |  |  |  |  | 
